Assay results published in patent publication US20240218017A1, “PEPTIDE AMPHIPHILES WITH MODIFIED DEGRADING SEQUENCES AND METHODS OF USE THEREOF” (UAB RESEARCH FOUNDATION, priority 2022, published 2024).
Peptide text beside a SMILES is read from it. * marks the point of attachment. Palmitoyl = CCCCCCCCCCCCCCCC(=O)*

Assay: Solubility in DI water at 1 wt % (visual observation, FIG. 5)
Format: physicochemical
Method: PA-C16-GTAGLKKK-YIGSR (SEQ ID NO: 19) and PA-C16-GTAKKKKK-YIGSR (SEQ ID NO:20) were dissolved in DI water at 1 wt %. […] Higher percent transmittance indicates less opaqueness of solution, which corresponds with increased solubility of the peptide amphiphiles in DI water. Thus, PA-C16-GTAGLKKK-YIGSR (SEQ ID NO: 19) and PA-C16-GTAKKKKK-YIGSR (SEQ ID NO:20) are more soluble than unmodified PA-C16-GTAGLIGQ-YIGSR (SEQ ID NO:21).

For CCCCCCCCCCCCCCCC(=O)NCC(=O)N[C@H](C(=O)N[C@@H](C)C(=O)NCC(=O)N[C@@H](CC(C)C)C(=O)N[C@H](C(=O)NCC(=O)N[C@@H](CCC(N)=O)C(=O)N[C@@H](Cc1ccc(O)cc1)C(=O)N[C@H](C(=O)NCC(=O)N[C@@H](CO)C(=O)N[C@@H](CCCNC(=N)N)C(=O)O)[C@@H](C)CC)[C@@H](C)CC)[C@@H](C)O [PA-C16-GTAGLIGQ-YIGSR, PA-C16-GTAGLIGQ-YIGSR (SEQ ID NO:21), reference compound] (Palmitoyl-GTAGLIGQYIGSR-OH; N-terminus and C-terminus assumed), the solubility was “insoluble and forms precipitates”.

In the case of CCCCCCCCCCCCCCCC(=O)NCC(=O)N[C@H](C(=O)N[C@@H](C)C(=O)NCC(=O)N[C@@H](CC(C)C)C(=O)N[C@@H](CCCCN)C(=O)N[C@@H](CCCCN)C(=O)N[C@@H](CCCCN)C(=O)N[C@@H](Cc1ccc(O)cc1)C(=O)N[C@H](C(=O)NCC(=O)N[C@@H](CO)C(=O)N[C@@H](CCCNC(=N)N)C(=O)O)[C@@H](C)CC)[C@@H](C)O [PA-C16-GTAGLKKK-YIGSR, PA-C16-GTAGLKKK-YIGSR (SEQ ID NO:19)] (Palmitoyl-GTAGLKKKYIGSR-OH; N-terminus and C-terminus assumed), the solubility is reported as “form homogenous, transparent solutions”.

For CCCCCCCCCCCCCCCC(=O)NCC(=O)N[C@H](C(=O)N[C@@H](C)C(=O)N[C@@H](CCCCN)C(=O)N[C@@H](CCCCN)C(=O)N[C@@H](CCCCN)C(=O)N[C@@H](CCCCN)C(=O)N[C@@H](CCCCN)C(=O)N[C@@H](Cc1ccc(O)cc1)C(=O)N[C@H](C(=O)NCC(=O)N[C@@H](CO)C(=O)N[C@@H](CCCNC(=N)N)C(=O)O)[C@@H](C)CC)[C@@H](C)O [PA-C16-GTAKKKKK-YIGSR, PA-C16-GTAKKKKK-YIGSR (SEQ ID NO:20)] (Palmitoyl-GTAKKKKKYIGSR-OH; N-terminus and C-terminus assumed), the solubility was “form homogenous, transparent solutions”.
